Data set [1] has as its system rat inflammatory arthritis model. Further details: method as in Sahu et al., 2012. To be noted: ref Sahu et al., 2012; cited from earlier work.
For data set [2], the system named is TIMP-3 mRNA. In words: TIMP-3 mRNA analysis in human OA chondrocytes (quantitative PCR). Format: cell-based. To be noted: suramin 0–250 µg/ml, 48 hours. On the procedure: (§1) HTB94 chondrosarcoma cells or primary human chondrocytes (1 × 10^6 cells) were treated in triplicate with 0–250 µg/ml suramin in serum-free DMEM for 18–48 hours. Total RNA was isolated from cells using an RNeasy mini kit (Qiagen, Crawley, UK) and cDNA was synthesized (reverse transcriptase kit; Applied Biosystems, Foster City, CA). Levels of TIMP-1, TIMP-2, TIMP-3, LRP1, and RPLP0 internal reference mRNA were quantified by real-time polymerase […] chain reaction on a Corbett Rotor-Gene 6000 (Corbett Life Science, Mortlake, NSW, Australia) using TaqMan Fast Universal PCR Master Mix (Applied Biosystems) and TaqMan probes (Applied Biosystems) Hs01092512_g1 for TIMP-1, Hs00234278_m1 for TIMP-2, Hs00165949_m1 for TIMP-3, Hs00233856_m1 for LRP1, and Hs99999902_m1 for RPLP0. The ΔΔ threshold cycle values (mean ± S.D., n = 3 technical replicates) are shown relative to control untreated HTB94 cells (defined as 1).

In data set [3] the test system is HTB94 chondrosarcoma cells. It is filed as cell-based. Particulars: after 8 hours; TIMP-3 1 nM preincubated with suramin 200 µg/ml; HTB94 cells. The protocol:
Cells (HTB94 chondrosarcoma cells, primary porcine chondrocytes, or human osteoarthritic chondrocytes) were plated overnight (6 × 10^5 cells per well of a 12-well plate) in DMEM containing 10% FCS and washed three times in serum-free DMEM.
To evaluate endocytosis of exogenously added TIMP-3, cells were incubated with recombinant TIMP-3 (1 nM in 1.5 ml DMEM with 0.1% FCS) for 0–24 hours. Conditioned media were concentrated by precipitation with trichloroacetic acid [5% (v/v), 4°C, 18 hours]. After centrifugation (13,000 rpm, 4°C, 10 minutes), protein-containing pellets were resuspended in SDS sample buffer (30 µl), electrophoresed (7 µl) on a 10% polyacrylamide gel, and immunoblotted onto polyvinylidene fluoride. After blocking in 5% (m/v) BSA in Tris-buffered saline, TIMP-3 levels were analyzed using an M2 anti-FLAG antibody (Sigma-Aldrich), an alkaline phosphatase–conjugated anti-mouse secondary antibody (Promega, Southampton, UK), and a Western Blue stabilized substrate for alkaline phosphatase (Promega). Immunoblots were analyzed by densitometry using Phoretix 1D densitometry software (TotalLab, Newcastle-upon-Tyne, UK), and TIMP-3 remaining in the medium (mean ± S.D., n = 3) was calculated relative to pixel volume at a t of 0 hours (defined as 100%).

The subject of data set [4] is MMP-9. Further details: method as in Taniguti et al., 2012. To be noted: ref Taniguti et al., 2012; cited from earlier work.
The target in data set [5] is T1, MMP-2 (Homo sapiens, UniProt P08253).
T1 sequence (P08253 110-660): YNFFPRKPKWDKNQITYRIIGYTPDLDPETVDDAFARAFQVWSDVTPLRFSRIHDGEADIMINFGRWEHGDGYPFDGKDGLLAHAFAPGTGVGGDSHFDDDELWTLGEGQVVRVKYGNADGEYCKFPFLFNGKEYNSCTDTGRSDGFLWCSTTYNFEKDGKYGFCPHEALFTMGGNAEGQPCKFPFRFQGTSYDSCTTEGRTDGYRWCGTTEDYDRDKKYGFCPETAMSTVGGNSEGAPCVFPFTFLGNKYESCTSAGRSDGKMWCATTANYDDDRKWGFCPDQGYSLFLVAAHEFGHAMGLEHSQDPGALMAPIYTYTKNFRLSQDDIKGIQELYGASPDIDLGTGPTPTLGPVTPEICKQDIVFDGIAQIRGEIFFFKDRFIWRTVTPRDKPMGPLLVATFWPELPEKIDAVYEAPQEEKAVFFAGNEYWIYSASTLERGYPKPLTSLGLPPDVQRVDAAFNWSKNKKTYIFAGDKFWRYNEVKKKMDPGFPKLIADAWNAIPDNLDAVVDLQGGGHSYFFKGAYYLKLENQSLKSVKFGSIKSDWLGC
In words: MMP-2 activity in vitro (data not shown). Format: biochemical.

On the set-up of data set [6]: method as in Voogd et al., 1993. To be noted: ref Voogd et al., 1993; cited from earlier work.
Data set [7] concerns TIMP-1 mRNA. In words: TIMP-1 mRNA analysis in HTB94 cells (quantitative PCR). Format: cell-based. To be noted: suramin 0–250 µg/ml, 18 hours. The protocol: as §1
Data set [8] concerns porcine cartilage explants. In words: Aggrecan release from porcine cartilage explants (DMMB assay, neo-epitope immunoblotting). It is filed as cell-based. The protocol: The effects of suramin on cartilage degradation were assessed using porcine or human cartilage explants. Explants were rested for 48 hours after dissection and were washed with serum-free DMEM. […]
Aggrecan degradation was analyzed by quantifying aggrecan fragments released into the conditioned media using the dimethylmethylene blue (DMMB) dye-binding assay ([Farndale et al., 1986]) (mean ± S.D., n = 3) and by immunoblotting with neo-epitope antibodies that recognize ADAMTS-cleaved but not intact aggrecan. For immunoblotting, conditioned media were deglycosylated by adding an equal volume of 200 mM sodium acetate and 50 mM Tris/HCl, pH 6.8, containing chondroitinase and β-endoglycosidase (0.05 U each; 18 hours, 37°C; Sigma-Aldrich). Aggrecan fragments were precipitated by adding five volumes of ice-cold acetone (18 hours, −20°C). After centrifugation (13,000 rpm, 10 minutes, 4°C), pellets were resuspended in SDS sample buffer, separated by electrophoresis on a 6% (v/v) polyacrylamide gel, and blotted onto polyvinylidene fluoride. Membranes were blocked with 5% (m/v) BSA in Tris-buffered saline and incubated with either a rabbit antibody that recognizes the AGEG neo-epitope generated by ADAMTS cleavage of the TAQE^1771∼^1772AGEG bond of aggrecan ([Troeberg et al., 2008]) or a mouse antibody that recognizes the ARGSV neo-epitope generated by ADAMTS cleavage of the NITEGE^373∼^374ARGSV bond ([Hughes et al., 1995]).

In data set [9] the test system is LRP1 mRNA. In words: LRP1 mRNA analysis in HTB94 cells (quantitative PCR). Format: cell-based. Particulars: 18 hours. The protocol:
as §1

Here are results for one compound from publication PMC5588548, “Suramin Inhibits Osteoarthritic Cartilage Degradation by Increasing Extracellular Levels of Chondroprotective Tissue Inhibitor of Metalloproteinases 3” (Molecular Pharmacology, 2017).

Each structure is given as a SMILES string. Values after ≈ are worked out from the molar mass of the structure shown.

Usually IC50 stands for the concentration at which inhibition is half-maximal. On to `Cc1ccc(C(=O)Nc2ccc(S(=O)(=O)O)c3cc(S(=O)(=O)O)cc(S(=O)(=O)O)c23)cc1NC(=O)c1cccc(NC(=O)Nc2cccc(C(=O)Nc3cc(C(=O)Nc4ccc(S(=O)(=O)O)c5cc(S(=O)(=O)O)cc(S(=O)(=O)O)c45)ccc3C)c2)c1` [suramin], for which the cartilage damage entry in data set [1] is “ameliorate cartilage damage”. Moreover, the “TIMP-3 mRNA levels” value in [2] is “without any significant change”. Besides, the “TIMP-3 remaining in the medium” value in data set [3] is on record as “more than 85%”. In addition, the MMP-9 activity result in data set [4] was “inhibit MMP-9 activity”. Further, the “MMP-2 activity in vitro” value in [5] is recorded as “inhibit MMP-2 activity”. Further, in [6], the oral bioavailability entry is “not orally bioavailable”. The “TIMP-1 mRNA levels” value in [7] is given as “no effect”. For the same compound, the IC50 in data set [8] (Sus scrofa, 48 h, porcine cartilage explants, retinoic acid 1 µM, 48 hours, DMMB assay, read-out: IC50 for inhibition of aggrecan release) came to 98 ± 9 µg/mL (≈ 75.5 µM). Besides, the aggrecan release result is given as “effectively inhibited” in data set [8] (porcine cartilage explants stimulated with IL-1 10 ng/ml or retinoic acid 1 µM, 48 hours, DMMB assay) and “significantly inhibited” in [8] (porcine cartilage, retinoic acid 1 µM, 30 hours, with isotype control antibody 50 µg/ml). In addition, the “aggrecan degradation at ADAMTS-susceptible NITEGE373∼374ARGSV and TAQE1771∼1772AGEG sites (neo-epitope immunoblotting)” value in data set [8] (porcine cartilage explants, retinoic acid 1 µM, 48 hours) is “inhibited”. The aggrecan degradation entry in data set [8] (porcine cartilage, retinoic acid 1 µM, 30 hours, with anti–TIMP-3 antibody MAB973 50 µg/ml) is “unable to inhibit”. Also, in data set [9] (suramin 250 µg/ml), the “increase in expression of LRP1 mRNA” value is 3 fold. Also, in data set [9] (suramin up to 200 µg/ml), the “expression of LRP1 mRNA” value was “unaffected”.
